Measured values reported in patent US20050136444A1 (priority 2003, published 2005).
Counter-ions that a name gives are not always drawn. Like-named read-outs stand apart in the source and are kept apart here.

Experiments:
NPFF2 = target: T1, NPFF2 (Homo sapiens, UniProt Q9Y5X5); test: Receptor Selection and Amplification Technology (R-SAT) functional assay, NPFF2; type: cell-based; conditions: Table 1; for Emax: Efficacy is relative to endogenous ligand, read-out: NPFF2 % Efficacy; for EC50 / NPFF2 pEC50: NA = No activity detectable at the highest dose tested (20 μM)
T1 construct: expressed in transfected cells; host or cells: NIH3T3
T1 sequence (Q9Y5X5 103-522): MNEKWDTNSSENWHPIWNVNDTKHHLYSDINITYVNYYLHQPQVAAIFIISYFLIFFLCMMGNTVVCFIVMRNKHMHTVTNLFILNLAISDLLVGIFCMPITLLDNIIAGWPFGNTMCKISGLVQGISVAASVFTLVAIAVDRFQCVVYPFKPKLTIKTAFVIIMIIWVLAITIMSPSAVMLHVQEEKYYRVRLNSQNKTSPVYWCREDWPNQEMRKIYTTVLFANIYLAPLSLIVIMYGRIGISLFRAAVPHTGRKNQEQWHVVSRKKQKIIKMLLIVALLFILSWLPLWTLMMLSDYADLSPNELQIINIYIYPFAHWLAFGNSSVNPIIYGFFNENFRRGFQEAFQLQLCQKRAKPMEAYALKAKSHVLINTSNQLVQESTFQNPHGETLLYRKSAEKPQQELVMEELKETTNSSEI
Protocol: (§1) Briefly, NIH3T3 cells were grown in 96 well tissue culture plates to 70-80% confluence. Cells were transfected for 16-20 h h with plasmid DNAs using Polyfect (Qiagen Inc.) as per manufacturer's protocols. R-SAT's were generally performed with 40 ng/well of receptor and 20 ng/well of β-galactosidase plasmid DNA. All receptor and G-protein constructs used were in the pSI-derived mammalian expression vector (Promega Inc) as described previously. […] For large-scale transfections, cells were transfected for 16-20 h, then trypsinized and frozen in DMSO. Frozen cells were later thawed, plated at ˜20,000 cells per well of a 96 half-area well plate that contained drug. With both methods, cells were then grown in a humidified atmosphere with 5% ambient CO2 for five days. Media was then removed from the plates and marker gene activity was measured by the addition of the β-galactosidase substrate o-nitrophenyl β-D-galactopyranoside (ONPG, in PBS with 0.5% NP-40). The resulting colorimetric reaction was measured in a spectrophotometric plate reader (Titertek Inc.) at 420 nm. All data were analyzed using the computer program XLFit (IDBSm).
(§2) R-SAT assay was conducted as set forth in […]

NPFF1 = NPFF1 (Homo sapiens, UniProt Q9GZQ6); test: Receptor Selection and Amplification Technology (R-SAT) functional assay, NPFF1; type: cell-based; set-up: expressed in transfected cells; host or cells: NIH3T3; conditions: R-SAT, Table 1; for Emax: Efficacy is relative to endogenous ligand, read-out: NPFF1 % Efficacy; for EC50: NA = No activity detectable at the highest dose tested (20 μM), read-out: NPFF1 pEC50 (converted)
NPFF1, sequence (Q9GZQ6 whole entry, species assumed): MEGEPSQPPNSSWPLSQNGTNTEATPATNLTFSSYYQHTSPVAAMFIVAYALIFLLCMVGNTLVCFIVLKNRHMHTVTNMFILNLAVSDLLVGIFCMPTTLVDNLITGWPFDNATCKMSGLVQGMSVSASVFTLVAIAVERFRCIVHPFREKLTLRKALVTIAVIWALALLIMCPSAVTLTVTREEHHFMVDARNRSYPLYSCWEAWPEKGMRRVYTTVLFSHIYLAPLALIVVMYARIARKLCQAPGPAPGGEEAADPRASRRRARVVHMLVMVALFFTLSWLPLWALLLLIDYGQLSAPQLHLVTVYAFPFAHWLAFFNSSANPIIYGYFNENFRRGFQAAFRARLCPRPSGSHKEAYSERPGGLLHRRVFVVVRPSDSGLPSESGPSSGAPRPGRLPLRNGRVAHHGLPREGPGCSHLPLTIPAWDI
Protocol: as §1, §2

[1] = R-SAT, read-out: NPFF2 pEC50 (converted)

In the case of `COc1ccc(OC)c(C(C)=NNC(=N)N)c1` (mixture of isomers) [Compound 3029, 1-[1-(2,5-Dimethoxyphenyl)ethylideneamino]guanidine Hydrochloride], the Emax (NPFF2; R-SAT) is reported as 32%, the EC50 (NPFF2; [1]) is reported as 5.01 µM and the Emax (NPFF1) is reported as -1%.

For `COc1ccc(C(C)=NNC(=N)N)c(O)c1` (mixture of isomers) [Compound 3030, 1-[1-(2-Hydroxy-4-methoxyphenyl)ethylideneamino]guanidine Hydrochloride], the Emax (NPFF2; R-SAT) was 22%, the EC50 (NPFF2; [1]) was 6.31 µM and the Emax (NPFF1) was 7%.

In the case of `CCCCC(=NNC(=N)N)c1ccc(N(C)C)cc1` (mixture of isomers) [Compound 3035, 1-[1-(4-Dimethylaminophenyl)pentylideneamino]guanidine], the Emax (NPFF2; R-SAT) is reported as 69%, the EC50 (NPFF2; [1]) is reported as 2 µM and the Emax (NPFF1) is reported as 81%. The EC50 (NPFF1) was 3.16 µM.

For `CCCCC/C(=N/NC(=N)N)c1cccc(C)c1` [Compound 1001], the Emax (NPFF2; R-SAT) was 49%.

For `CCCCC/C(=N\NC(=N)N)c1ccc(C)cc1` [Compound 1002], the Emax (NPFF2; R-SAT) was 41% and the “NPFF2 pEC50” value (NPFF2; R-SAT) was 6.2.

`CCCC/C(=N\NC(=N)N)c1ccc(O)cc1` [Compound 1004] showed an Emax (NPFF2; R-SAT) of 106%.

For `COc1ccc(/C=N/NC(=N)N)cc1I` [Compound 1005], the Emax (NPFF2; R-SAT) was 70% and the “NPFF2 pEC50” value (NPFF2; R-SAT) was 5.5.

`C/C(=N\NC(=N)N)c1cc(Br)ccc1Br` [Compound 1006] showed an Emax (NPFF2; R-SAT) of 53%.

With `N=C(N)N/N=C/c1ccc(Br)cc1` [Compound 1007] the Emax (NPFF2; R-SAT) was 102%.

For `C/C(=N\NC(=N)N)c1ccccc1` [Compound 1010], the Emax (NPFF2; R-SAT) was 51% and the “NPFF2 pEC50” value (NPFF2; R-SAT) was 5.2.

`CN(C)c1ccc(/C=N/NC(=N)N)cc1[N+](=O)[O-]` [Compound 1012] was tested, and the Emax (NPFF2; R-SAT) was 51% and the “NPFF2 pEC50” value (NPFF2; R-SAT) was 5.2.

With `COc1ccc(/C=N/NC(=N)N)cc1` [Compound 1014] the Emax (NPFF2; R-SAT) was 97% and the “NPFF2 pEC50” value (NPFF2; R-SAT) was 5.0.

`N=C(N)NN=Cc1cccc(C(F)(F)F)c1` [Compound 2002, 1-[3-(Trifluoromethyl)benzylideneamino]guanidine Hydrochloride] gave an Emax (NPFF2; R-SAT) of 39% and an EC50 (NPFF2; [1]) of 2.51 µM.

`CC(=NNC(=N)N)c1cccc(Br)c1` [Compound 2003, 1-[1-(3-Bromophenyl)ethylideneamino]guanidine Hydrochloride] was tested, and the Emax (NPFF2; R-SAT) was 49% and the EC50 (NPFF2; [1]) was 1.58 µM.

`N=C(N)NN=Cc1cc(F)ccc1[N+](=O)[O-]` [Compound 2004, 1-(5-Fluoro-2-nitrobenzylideneamino)guanidine Hydrochloride] gave an Emax (NPFF2; R-SAT) of 38% and an EC50 (NPFF2; [1]) of 10 µM.

`N=C(N)NN=Cc1c2ccccc2cc2ccccc12` [Compound 2006, 1-[(Anthracen-9-yl)methylideneamino]guanidine Hydrochloride] was tested, and the Emax (NPFF2; R-SAT) was 51% and the EC50 (NPFF2; [1]) was 0.794 µM.

With `COc1cc(C=NNC(=N)N)cc(OC)c1` [Compound 2007, 1-(3,5-Dimethoxybenzylideneamino)guanidine Hydrochloride] the Emax (NPFF2; R-SAT) was 29%, the EC50 (NPFF2; [1]) was 3.16 µM and the Emax (NPFF1) was 5%.

For `COc1ccc(C=NNC(=N)N)cc1F` [Compound 2009, 1-(3-Fluoro-4-methoxybenzylideneamino)guanidine Hydrochloride], the Emax (NPFF2; R-SAT) was 54%, the EC50 (NPFF2; [1]) was 7.94 µM and the Emax (NPFF1) was 9%.

Compound `N=C(N)NN=Cc1ccc(F)c(Br)c1` [Compound 2010, 1-(3-Bromo-4-fluorobenzylideneamino)guanidine Hydrochloride] has an Emax (NPFF2; R-SAT) of 53%, an EC50 (NPFF2; [1]) of 1.26 µM and an Emax (NPFF1) of 7%.

For `Cc1cc(C=NNC(=N)N)ccc1F` [Compound 2012, 1-(4-Fluoro-3-methylbenzylideneamino)guanidine Hydrochloride], the Emax (NPFF2; R-SAT) was 56%, the EC50 (NPFF2; [1]) was 1.58 µM and the Emax (NPFF1) was 9%.

`N=C(N)NN=Cc1ccc(F)c(Cl)c1` [Compound 2013, 1-(3-Chloro-4-fluorobenzylideneamino)guanidine Hydrochloride] gave an Emax (NPFF2; R-SAT) of 34%, an EC50 (NPFF2; [1]) of 0.794 µM and an Emax (NPFF1) of 4%.

For `COc1ccc(C=NNC(=N)N)cc1Br` [Compound 2014, 1-(3-Bromo-4-methoxybenzylideneamino)guanidine Hydrochloride], the Emax (NPFF2; R-SAT) was 35%, the EC50 (NPFF2; [1]) was 2 µM and the Emax (NPFF1) was 8%.

`N=C(N)NN=Cc1ccc(Br)cc1F` [Compound 2018, 1-(4-Bromo-2-fluorobenzylideneamino)guanidine Hydrochloride] gave an Emax (NPFF2; R-SAT) of 53%, an EC50 (NPFF2; [1]) of 3.16 µM and an Emax (NPFF1) of 13%.

With `N=C(N)NN=Cc1ccc(Oc2ccccc2)cc1` [Compound 2020, 1-(4-Phenoxybenzylideneamino)guanidine Hydrochloride] the Emax (NPFF2; R-SAT) was 31%, the EC50 (NPFF2; [1]) was 0.501 µM and the Emax (NPFF1) was 24%. For the same compound, the EC50 (NPFF1) was 1.26 µM.

For `CC(C)Oc1ccc(C=NNC(=N)N)cc1` [Compound 2025, 1-(4-Isopropoxybenzylideneamino)guanidine], the Emax (NPFF2; R-SAT) was 87%, the EC50 (NPFF2; [1]) was 3.98 µM and the Emax (NPFF1) was 51%. The EC50 (NPFF1) was 3.98 µM.

Compound `CCOc1ccc(C=NNC(=N)N)cc1OCC` [Compound 2026, 1-(3,4-Diethoxybenzylideneamino)guanidine] has an Emax (NPFF2; R-SAT) of 58%, an EC50 (NPFF2; [1]) of 7.94 µM and an Emax (NPFF1) of 9%.

Work on `N=C(N)NN=Cc1ccc2c(c1)Cc1ccccc1-2` [Compound 2028, Hydrochloride] yielded an EC50 (NPFF2; NPFF2 pEC50, R-SAT) of 1.26 µM, an Emax (NPFF2; R-SAT) of 68% and an Emax (NPFF1) of 37%. The EC50 (NPFF1) was 1.58 µM.

With `N=C(N)NN=Cc1ccc(Cl)c(F)c1` [Compound 2030, 1-(4-Chloro-3-fluorobenzylideneamino)guanidine Hydrochloride] the Emax (NPFF2; R-SAT) was 62%, the EC50 (NPFF2; [1]) was 2.51 µM and the Emax (NPFF1) was 6%.

With `N=C(N)NN=Cc1ccc(O)c(Cl)c1` [Compound 2031, 1-(3-Chloro-4-hydroxybenzylideneamino)guanidine Hydrochloride] the Emax (NPFF2; R-SAT) was 16% and the Emax (NPFF1) was 1%.

`Cc1cc(C=NNC(=N)N)cc(C)c1O` [Compound 2033, 1-(3,5-Dimethyl-4-hydroxybenzylideneamino)guanidine Hydrochloride] gave an Emax (NPFF2; R-SAT) of 33%, an EC50 (NPFF2; [1]) of 10 µM and an Emax (NPFF1) of 7%.

Compound `COc1ccc(C=NNC(=N)N)c(C)c1C` [Compound 2034, 1-(4-Methoxy-2,3-dimethylbenzylideneamino)guanidine Hydrochloride] has an Emax (NPFF2; R-SAT) of 105%, an EC50 (NPFF2; [1]) of 2.51 µM and an Emax (NPFF1) of 26%. The EC50 (NPFF1) was 3.98 µM.

Compound `NC(N)=NN=Cc1ccc(Cl)c(C(F)(F)F)c1` [Compound 2035, 1-[4-Chloro-3-(trifluoromethyl)benzylideneamino]guanidine Hydrochloride] has an Emax (NPFF2; R-SAT) of 114%, an Emax (NPFF1) of 45% and an EC50 (NPFF1) of 3.98 µM.

`N=C(N)NN=Cc1ccc2c(c1)OCCCO2` [Compound 2038, 1-[3,4-Dihydro-2H-benzo[b][1,4]dioxepin-7-yl)methylideneamino]guanidine Hydrochloride] gave an Emax (NPFF2; R-SAT) of 77%, an EC50 (NPFF2; [1]) of 3.98 µM and an Emax (NPFF1) of 9%.

`CC(=NNC(=N)N)c1ccc2c(c1)OCCO2` [Compound 2040, 1-[1-(2,3-Dihydro-benzo[1,4]dioxin-6-yl)ethylideneamino]guanidine Hydrochloride] showed an Emax (NPFF2; R-SAT) of 65%, an EC50 (NPFF2; [1]) of 7.94 µM and an Emax (NPFF1) of 18%.

For `C=CCOc1ccc(C=NNC(=N)N)cc1Cl` [Compound 2042, 1-(4-Allyloxy-3-chlorobenzylideneamino)guanidine Hydrochloride], the Emax (NPFF2; R-SAT) was 60% and the EC50 (NPFF2; [1]) was 0.794 µM.

Work on `COc1ccc(C=NNC(=N)N)cc1Cl` [Compound 2043, 1-(3-Chloro-4-methoxybenzylideneamino)guanidine Hydrochloride] yielded an Emax (NPFF2; R-SAT) of 47% and an EC50 (NPFF2; [1]) of 2 µM.

In the case of `N#CCCCCOc1ccc(C=NNC(=N)N)cc1Cl` [Compound 2044, 1-[3-Chloro-4-(4-cyanobutoxy)benzylideneamino]guanidine Hydrochloride], the Emax (NPFF2; R-SAT) is reported as 45% and the EC50 (NPFF2; [1]) is reported as 3.98 µM.

`CCOCCOc1ccc(/C=N/NC(=N)N)cc1Cl` [Compound 2054, 1-[3-Chloro-4-(2-ethoxy-ethoxy)benzylideneamino])guanidine Acetate] was tested, and the Emax (NPFF2; R-SAT) was 96%, the EC50 (NPFF2; [1]) was 10 µM and the Emax (NPFF1) was 21%.

Work on `CCC(=NNC(=N)N)c1ccc(Cl)c(Cl)c1` [Compound 2056, 1-(3,4-Dichlorophenyl)-1-(propylideneaminoguanidine) Hydrochloride] yielded an Emax (NPFF2; R-SAT) of 73%, an EC50 (NPFF2; [1]) of 0.501 µM and an Emax (NPFF1) of 6%.

With `N=C(N)NN=Cc1cccc(-c2ccccc2C(F)(F)F)c1` [Compound 2058, 1-[3-(2-Trifluoromethylphenyl)benzylideneamino]guanidine Hydrochloride] the Emax (NPFF2; R-SAT) was 60%, the EC50 (NPFF2; [1]) was 0.501 µM and the Emax (NPFF1) was 25%. It also gave an EC50 (NPFF1) of 1 µM.

`COc1cc(Cl)cc(C=NNC(=N)N)c1OC` [Compound 2059, 1-(5-Chloro-2,3-dimethoxybenzylideneamino)guanidine Hydrochloride] showed an Emax (NPFF2; R-SAT) of 79%, an EC50 (NPFF2; [1]) of 5.01 µM and an Emax (NPFF1) of 31%. The EC50 (NPFF1) was 10 µM.

`N=C(N)NN=Cc1ccc(C(F)(F)F)cc1F` [Compound 2060, 1-[2-Fluoro-4-(trifluoromethyl)benzylideneamino]guanidine Hydrochloride] gave an Emax (NPFF2; R-SAT) of 48%, an EC50 (NPFF2; [1]) of 3.98 µM and an Emax (NPFF1) of 26%. It also gave an EC50 (NPFF1) of 3.98 µM.
